“And” between values parts separate entries of the source, which are not always exact repeats. Identical values can stand only once. Starred links: 1 amine or outer side, 2 acyl side, 3 side chain; linkers in the order of their positions; H or OH if unused. Non-standard residues stand in square brackets, D forms with d. Residues, ends and D or L forms follow the SMILES beside them. Lys(thiomyristoyl) = CCCCCCCCCCCCCC(=S)NCCCC[C@H](N)C(=O)O; X1 = CCCC(=S)NCCCC[C@H](N[*:1])C(=O)[*:2]; Abu = CC[C@H](N)C(=O)O
How the values were obtained:
[1] = molecular target: T1, SIRT2 (Homo sapiens, UniProt Q8IXJ6); experiment: SIRT2 inhibition assay for thiomyristoyl peptides; format: biochemical; settings: for IC50: 10 nM SIRT2, 15 min preincubation, 5 µM substrate, n = 2
T1 sequence (Q8IXJ6 1-389): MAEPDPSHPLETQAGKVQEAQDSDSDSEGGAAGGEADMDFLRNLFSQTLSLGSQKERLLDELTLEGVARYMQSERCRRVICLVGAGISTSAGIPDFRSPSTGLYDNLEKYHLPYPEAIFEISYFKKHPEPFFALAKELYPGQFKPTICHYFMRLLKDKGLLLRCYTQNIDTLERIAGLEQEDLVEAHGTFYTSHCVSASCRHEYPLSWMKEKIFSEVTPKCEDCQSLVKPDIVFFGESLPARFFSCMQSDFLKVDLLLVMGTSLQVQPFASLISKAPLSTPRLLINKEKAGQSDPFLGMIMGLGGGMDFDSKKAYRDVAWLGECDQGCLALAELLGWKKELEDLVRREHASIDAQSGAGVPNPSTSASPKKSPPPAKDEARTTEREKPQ
Description: Assays were performed in 40-µL volumes at 37 °C in black, 384-well plates. […] Following incubation, the reaction started with the addition of the fluorogenic substrate (5 µM), and product formation was monitored by measuring the fluorescence intensity every 20 s for 5 min (SIRT2) in a BioTek Synergy H1 microplate reader at λex = 320 nm and λem = 408 nm (gain = 130 and read height = 7 mm). Initial rates were determined using the plot of fluorescence vs. time for linear portions of each curve. IC50 values were then determined using GraphPad Prism to fit a nonlinear regression to the normalized rates vs. inhibitor concentration.

[2] = molecular target: T1, SIRT2; experiment: Continuous fluorogenic sirtuin inhibition assay, SIRT2 (tBuK peptides, TB); format: biochemical; settings: for IC50: 0.25 µM SIRT2, 1 mM NAD+, 5 µM fluorogenic substrate, 15 min preincubation, n = 2, read-out: IC50; for %Activity, SIRT2 / activity at 0.032 µM / activity at 0.5 µM / activity at 1 µM / activity at 2 µM / activity at 0.0064 µM / activity at 4 µM / activity at 50 µM: single trials
Description: The continuous assay for comparing isoform specificity of S2P04 was performed using the universal fluorogenic sirtuin substrate described by Schuster et al.[41]. Briefly, the inhibition reactions were performed in 50-µL volumes at 37 °C in black, half-area, 96-well plates. The sirtuin enzyme (0.25 µM) was preincubated with different concentrations of the peptide S2P04 (0.0064–50 µM for SIRT1 and SIRT2, 0.5–100 µM for SIRT3) or TB (0.16–150 µM for SIRT1–SIRT3), and 1 mM NAD^+ in assay buffer (20 mM Tris, pH 7.8, 150 mM NaCl, 5 mM MgCl2, and 1 mM DTT) for 15 min. Following incubation, the reaction started with the addition of the fluorogenic substrate (5 µM), and product formation was monitored by measuring the fluorescence intensity every 20 s for 5 min (SIRT2) or 30 min (SIRT1 and SIRT3) in a BioTek Synergy H1 microplate reader at λex = 320 nm and λem = 408 nm (gain = 130 and read height = 7 mm). Initial rates of product formation were determined by a linear regression of the plot of fluorescence intensity vs. time and normalized relative to 0% (max inhibitor) and 100% (no inhibitor) controls. The assay was repeated to determine the IC50 values of all BuK peptides for SIRT2. IC50 values were determined by nonlinear regression of the plot of the normalized initial rate vs. inhibitor concentration using GraphPad Prism. The determined IC50 values are provided in Supplementary Table 2, and inhibition curves can be seen in Supplementary Fig. 20.

Row | Structure (SMILES) | IC50 [2] | %Activity, SIRT2 ([2]; inhibitor 0.0064 µM, 0.0064 µM) | activity at 0.032 µM ([2]; inhibitor 0.032 µM) | %Activity, SIRT2 ([2]; inhibitor 0.032 µM, 0.032 µM) | activity at 0.5 µM ([2]; inhibitor 0.5 µM) | %Activity, SIRT2 ([2]; inhibitor 0.5 µM, 0.5 µM) | activity at 1 µM ([2]; inhibitor 1 µM) | %Activity, SIRT2 ([2]; inhibitor 1 µM, 1 µM) | activity at 2 µM ([2]; inhibitor 2 µM) | %Activity, SIRT2 ([2]; inhibitor 2 µM, 2 µM) | %Activity, SIRT2 ([2]; inhibitor 4 µM, 4 µM) | %Activity, SIRT2 ([2]; inhibitor 50 µM, 50 µM) | activity at 0.0064 µM ([2]; inhibitor 0.0064 µM) | also measured
1 | CCCCCCCCCCCCCC(=S)NCCCC[C@H](NC(=O)[C@@H](NC(=O)[C@@H](NC(=O)[C@@H](N)CC)[C@@H](C)O)C(C)C)C(=O)N[C@H](C(N)=O)[C@@H](C)CC [S2P04(Abu)-5-tMyK] (H-[Abu]TV[Lys(thiomyristoyl)]I-NH2) | – | – | – | – | – | – | – | – | – | – | – | – | – | IC50 [1]: 18 ± 6 nM; activity at 0.000460773 µM ([1]; inhibitor 0.460773 nM): 83.3%; %Activity, SIRT2 ([1]; inhibitor 0.460773 nM, listed as S2P04 (Abu)-tMyK, 0.000460773 µM): 75.1766%; activity at 0.000921546 µM ([1]; inhibitor 0.921546 nM): 84.4%; %Activity, SIRT2 ([1]; inhibitor 0.921546 nM, listed as S2P04 (Abu)-tMyK, 0.000921546 µM): 83.3137%; activity at 0.00184309 µM ([1]; inhibitor 1.84309 nM): 92.7%; %Activity, SIRT2 ([1]; inhibitor 1.84309 nM, listed as S2P04 (Abu)-tMyK, 0.00184309 µM): 107.334%; activity at 0.00368618 µM ([1]; inhibitor 3.68618 nM): 92.3%; %Activity, SIRT2 ([1]; inhibitor 3.68618 nM, listed as S2P04 (Abu)-tMyK, 0.00368618 µM): 86.7202%; %Activity, SIRT2 ([1]; inhibitor 7.37237 nM, listed as S2P04 (Abu)-tMyK, 0.00737237 µM): 106.229% and 65.8212%; activity at 0.0147447 µM ([1]; inhibitor 14.7447 nM): 70.6%; %Activity, SIRT2 ([1]; inhibitor 14.7447 nM, listed as S2P04 (Abu)-tMyK, 0.0147447 µM): 50.6621%; activity at 0.058979 µM ([1]; inhibitor 58.979 nM): 27.7%; %Activity, SIRT2 ([1]; inhibitor 58.979 nM, listed as S2P04 (Abu)-tMyK, 0.058979 µM): 13.9723%; activity at 0.117958 µM ([1]; inhibitor 117.958 nM): 20.7%; %Activity, SIRT2 ([1]; inhibitor 117.958 nM, listed as S2P04 (Abu)-tMyK, 0.117958 µM): 15.5064%; %Activity, SIRT2 ([1]; inhibitor 235.916 nM, listed as S2P04 (Abu)-tMyK, 0.235916 µM): 2.564% and 11.5055%; %Activity, SIRT2 ([1]; inhibitor 471.832 nM, listed as S2P04 (Abu)-tMyK, 0.471832 µM): 2.292% and -2.292%; %Activity, SIRT2 ([1]; inhibitor 943.663 nM, listed as S2P04 (Abu)-tMyK, 0.943663 µM): 6.074% and 14.5226%
2 | CCCC(=S)NCCCC[C@H](NC(=O)[C@H](Cc1ccccc1)NC(=O)[C@@H](NC(=O)[C@@H](N)CS)[C@@H](C)O)C(=O)N[C@H](C(=O)N1CCC[C@H]1C(=O)N[C@H](C(N)=O)[C@@H](C)O)C(C)C [S2P07-tBuK] (H-CTF[X1]VPT-NH2) | 101 ± 13 nM | 98.946% and 68.389% | 87.5% | 67.907% | 9.45% | 9.1144% | 6.71% | 5.6905% | 4.93% | 4.4406% | 0.3859% and 2.3975% | 0.4825% and -0.01509% | – | –
3 | CCCC(=S)NCCCC[C@H](NC(=O)[C@@H](NC(=O)[C@@H](NC(=O)[C@H](CS)NC(C)=O)[C@@H](C)O)C(C)C)C(=O)N[C@H](C(N)=O)[C@@H](C)CC [Ac-S2P04-5-tBu] (Ac-CTV[X1]I-NH2) | 191 ± 9 nM | 111.5% | 89.7% | 105.63% | 12.5% | 12.664% | 5.39% | 6.0395% | 3.09% | 4.8945% | 3.4595% | -0.7428% and 1.396% | 104% | activity at 4 µM ([2]; inhibitor 4 µM): 3.78%
4 | CCCC(=S)NCCCC[C@H](NC(=O)[C@@H](NC(=O)[C@@H](NC(=O)[C@@H](N)CS)[C@@H](C)O)C(C)C)C(=O)N[C@H](C(N)=O)[C@@H](C)CC [S2P04-5-tBuK] (H-CTV[X1]I-NH2) | 136 ± 29 nM | 119.97% | 87.2% | 96.038% | 8.86% | 9.5933% | 6.24% | 6.7307% | 5% | 6.0395% | -0.2382% and 0.3719% | 0.8865% | 101% | activity at 50 µM ([2]; inhibitor 50 µM): 1.19%
5 | CCCC(=S)NCCCC[C@H](NC(=O)[C@@H](NC(=O)[C@@H](NC(=O)[C@@H](N)CC)[C@@H](C)O)C(C)C)C(=O)N[C@H](C(N)=O)[C@@H](C)CC [S2P04(Abu)-5-tBuK] (H-[Abu]TV[X1]I-NH2) | 119 ± 3 nM | – | – | – | 10% | – | 6.61% | – | 4.66% | – | – | – | – | %Activity, SIRT2 ([2]; inhibitor 0.0064 µM, listed as S2P04-5-Abu-tBu, 0.0064 µM): 97.908% and 63.307%; %Activity, SIRT2 ([2]; inhibitor 0.032 µM, listed as S2P04-5-Abu-tBu, 0.032 µM): 79.071% and 55.539%; %Activity, SIRT2 ([2]; inhibitor 0.5 µM, listed as S2P04-5-Abu-tBu, 0.5 µM): 11.559%; %Activity, SIRT2 ([2]; inhibitor 1 µM, listed as S2P04-5-Abu-tBu, 1 µM): 4.9054%; %Activity, SIRT2 ([2]; inhibitor 2 µM, listed as S2P04-5-Abu-tBu, 2 µM): 4.1695%; activity at 4 µM ([2]; inhibitor 4 µM): 3.95%; %Activity, SIRT2 ([2]; inhibitor 4 µM, listed as S2P04-5-Abu-tBu, 4 µM): 3.2715%; activity at 50 µM ([2]; inhibitor 50 µM): 1.5%; %Activity, SIRT2 ([2]; inhibitor 50 µM, listed as S2P04-5-Abu-tBu, 50 µM): 1.1019%
6 | CCCCCCCCCCCCCC(=S)NCCCC[C@H](NC(=O)[C@@H](NC(=O)[C@@H](NC(=O)[C@H](CS)NC(=O)[C@@H](N)[C@@H](C)O)[C@@H](C)O)C(C)C)C(=O)N[C@H](C(=O)NCC(N)=O)[C@@H](C)CC [S2P04-tMyK] (H-TCTV[Lys(thiomyristoyl)]IG-NH2) | – | – | – | – | – | – | – | – | – | – | – | – | – | IC50 [1]: 13 ± 4 nM; activity at 0.000466362 µM ([1]; inhibitor 0.466362 nM): 95.3%; %Activity, SIRT2 ([1]; inhibitor 0.466362 nM, 0.000466362 µM): 104.732%; activity at 0.000932724 µM ([1]; inhibitor 0.932724 nM): 97.9%; %Activity, SIRT2 ([1]; inhibitor 0.932724 nM, 0.000932724 µM): 100.382%; %Activity, SIRT2 ([1]; inhibitor 1.86545 nM, 0.00186545 µM): 87.5221% and 108.94%; %Activity, SIRT2 ([1]; inhibitor 3.7309 nM, 0.0037309 µM): 78.4292% and 108.338%; activity at 0.0074618 µM ([1]; inhibitor 7.4618 nM): 77.8%; %Activity, SIRT2 ([1]; inhibitor 7.4618 nM, 0.0074618 µM): 66.6253%; %Activity, SIRT2 ([1]; inhibitor 14.9236 nM, 0.0149236 µM): 48.6419% and 27.9749%; activity at 0.0596944 µM ([1]; inhibitor 59.6944 nM): 11%; %Activity, SIRT2 ([1]; inhibitor 59.6944 nM, 0.0596944 µM): 20.9299%; %Activity, SIRT2 ([1]; inhibitor 955.11 nM, 0.95511 µM): -1.089% and 1.089%
7 | CCCC(=S)NCCCC[C@H](NC(=O)[C@@H](NC(=O)[C@@H](NC(=O)[C@@H](N)CS)[C@@H](C)O)C(C)C)C(=O)N[C@H](C(=O)N[C@@H](CO)C(=O)N[C@@H](CC(C)C)C(N)=O)[C@@H](C)O [S2P03-tBuK] (H-CTV[X1]TSL-NH2) | 68 ± 5 nM | 108.62% | 83.5% | 92.999% | – | 2.6542% and 5.9955% | – | 1.6503% and 4.1115% | 1.28% | 2.2764% | -0.1595% and 1.9208% | 2.8758% and -0.3176% | 98.4% | –

Source: article PMC7070036, “An amber obligate active site-directed ligand evolution technique for phage display” (Nature Communications, 2020)
